This assay addresses LasB (Pseudomonas aeruginosa (strain ATCC 15692 / DSM 22644 / CIP 104116 / JCM 14847 / LMG 12228 / 1C / PRS 101 / PAO1), UniProt P14756). In words: In vitro LasB activity assay (fluorogenic substrate). It counts as biochemical. As to conditions: LasB 0.3 nM, substrate 150 μM, mean ± SD. The protocol: The LasB activity assay was performed as described previously (Nishino N, Powers J C. Pseudomonas aeruginosa elastase. Development of a new substrate, inhibitors, and an affinity ligand. J Biol Chem. 1980 Apr. 25; 255(8):3482-6) using the fluorogenic substrate 2-Aminobenzoyl-L-Alanyl-Glycyl-L-Leucyl-L-Alanyl-para-Nitro-Benzyl-Amide, purchased from Peptides International (Louisville, KY, USA) and vivitide, LLC (Gardner, MA, USA).
Fluorescence intensity was measured for 60 min at 37° C. in black 384-well microtiter plates (Greiner BioOne, Kremsmünster, Austria) using a CLARIOstar microplate reader (BMG Labtech, Ortenberg, Germany) with an excitation wavelength of […] and an emission wavelength of 415±20 nm. The assay was performed in a final volume of 50 μL of assay buffer (50 mM Tris, pH 7.2, 2.5 mM CaCl2), 0.075% Pluronic F-127, 5% DMSO) containing LasB at a final concentration of […] 0.3 nM and the substrate at 150 μM. Before substrate addition, compounds were preincubated with the enzyme at 37° C. for 15 min. Experiments were performed in duplicates and repeated for at least two times. Blank controls without enzyme were performed. After blank subtraction, the slope of samples containing inhibitors (v) was divided by the slope of a simultaneously started uninhibited enzymatic reaction (v0). IC50 values were determined with nonlinear regression using GraphPad Prism 5 (Graph Pad Software, San Diego, CA, USA) and are given as mean values ±standard deviation (SD). The slope factor was constrained to 1.
Chain of LasB (P14756 198-498): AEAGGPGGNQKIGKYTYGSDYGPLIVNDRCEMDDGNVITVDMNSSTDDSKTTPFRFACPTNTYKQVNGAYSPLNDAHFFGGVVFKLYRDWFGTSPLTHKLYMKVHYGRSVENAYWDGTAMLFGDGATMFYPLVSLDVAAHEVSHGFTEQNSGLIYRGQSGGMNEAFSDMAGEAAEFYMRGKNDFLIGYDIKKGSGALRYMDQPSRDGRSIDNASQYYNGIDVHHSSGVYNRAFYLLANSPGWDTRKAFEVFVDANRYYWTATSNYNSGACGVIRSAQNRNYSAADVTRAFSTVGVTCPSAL
For the compound `CC(C)CC(C(=O)NO)C(=O)Nc1ccc(Cn2cc(CN3C(=O)c4ccccc4S3(=O)=O)nn2)cc1` (stereo not drawn) [Compound 139, 2-(Hydroxycarbamoyl)-4-methyl-N-[4-[[4-[(1,1,3-trioxo-1,2-benzothiazol-2-yl)methyl]triazol-1-yl]methyl]phenyl]pentanamide], 19.3 ± 0.6 nM corresponded to half-maximal inhibition (IC50). The figure for `CC(C)CC(C(=O)NO)C(=O)Nc1ccc(Cn2cc(CNS(=O)(=O)c3cccc(Cl)c3)nn2)cc1` (stereo not drawn) [Compound 164, N-[4-[[4-[[(3-Chlorophenyl)sulfonylamino]methyl]triazol-1-yl]methyl]phenyl]-2-(hydroxycarbamoyl)-4-methyl-pentanamide] is 2.4 ± 0.1 nM; for `CC(C)CC(C(=O)NO)C(=O)Nc1ccc(Cn2cc(CNc3ccc(I)cc3)nn2)cc1` (stereo not drawn) [Compound 134, 2-(Hydroxycarbamoyl)-N-[4-[[4-[(4-iodoanilino)methyl]triazol-1-yl]methyl]phenyl]-4-methyl-pentanamide] it is 8.4 ± 0.5 nM; for `CC(C)CC(C(=O)NO)C(=O)Nc1ccc(Cn2cc(CNS(=O)(=O)c3ccccc3)nn2)cc1` (stereo not drawn) [Compound 167, N-[4-[[4-(Benzenesulfonamidomethyl)triazol-1-yl]methyl]phenyl]-2-(hydroxycarbamoyl)-4-methyl-pentanamide] it is 5.5 ± 0.3 nM. `CC(C)CC(C(=O)NO)C(=O)Nc1ccc(Cn2cc(CNS(=O)(=O)c3ccccc3Cl)nn2)cc1` (stereo not drawn) [Compound 163, N-[4-[[4-[[(2-Chlorophenyl)sulfonylamino]methyl]triazol-1-yl]methyl]phenyl]-2-(hydroxycarbamoyl)-4-methyl-pentanamide] returned an IC50 of 4.3 ± 0.1 nM. The figure for `CC(C)CC(C(=O)NO)C(=O)Nc1ccc(Cn2cc(CNS(=O)(=O)CC34CCC(CC3=O)C4(C)C)nn2)cc1` (stereo not drawn) [Hit L2, N-[4-[[4-[[(7,7-Dimethyl-2-oxo-norbornan-1-yl)methylsulfonylamino]methyl]triazol-1-yl]methyl]phenyl]-2-(hydroxycarbamoyl)-4-methyl-pentanamide] is 5.3 ± 0.1 nM; for `CC(C)CC(C(=O)NO)C(=O)Nc1ccc(Cn2cc(-c3ccc(I)cc3)nn2)cc1` (stereo not drawn) [Compound 138, 2-(Hydroxycarbamoyl)-N-[4-[[4-(4-iodophenyl)triazol-1-yl]methyl]phenyl]-4-methyl-pentanamide] it is 37.8 ± 2.9 nM. The figure for `CC(C)CC(C(=O)NO)C(=O)Nc1ccc(Cn2cc(CNS(=O)(=O)c3ccc(NC(=O)OC(C)(C)C)cc3)nn2)cc1` (stereo not drawn) [Compound 208, tert-butyl N-[4-[[1-[[4-[[2-(hydroxycarbamoyl)-4-methyl-pentanoyl]amino]phenyl]methyl]triazol-4-yl]methylsulfamoyl]phenyl]carbamate] is 4.2 ± 0.2 nM; for `CC(=O)Nc1ccccc1OCc1cn(Cc2ccc(NC(=O)C(CC(C)C)C(=O)NO)cc2)nn1` (stereo not drawn) [Hit L5, N-[4-[[4-[(2-Acetamidophenoxy)methyl]triazol-1-yl]methyl]phenyl]-2-(hydroxycarbamoyl)-4-methyl-pentanamide] it is 13.8 ± 0.3 nM. The figure for `COC(=O)c1ccc(S(=O)(=O)NCc2cn(Cc3ccc(NC(=O)C(CC(C)C)C(=O)NO)cc3)nn2)cc1` (stereo not drawn) [Compound 204, methyl 4-[[1-[[4-[[2-(hydroxycarbamoyl)-4-methyl-pentanoyl]amino]phenyl]methyl]triazol-4-yl]methylsulfamoyl]benzoate] is 13 ± 0.4 nM; for `CC(C)CC(C(=O)NO)C(=O)Nc1ccc(Cn2nncc2CNC(=O)OC(C)(C)C)cc1` (stereo not drawn) [Compound 185, tert-butyl N-[[3-[[4-[[2-(hydroxycarbamoyl)-4-methyl-pentanoyl]amino]phenyl]methyl]triazol-4-yl]methyl]carbamate] it is 6.5 ± 0.2 nM. For the compound `CC(C)CC(C(=O)NO)C(=O)Nc1ccc(Cn2cc(CNS(=O)(=O)c3ccc(OC(C)C)cc3)nn2)cc1` (stereo not drawn) [Compound 206, 2-(hydroxycarbamoyl)-N-[4-[[4-[[(4-isopropoxyphenyl)sulfonylamino]methyl]triazol-1-yl]methyl]phenyl]-4-methyl-pentanamide], the half-inhibitory concentration (IC50) stood at 7.8 ± 0.3 nM. For the compound `CC(C)CC(C(=O)NO)C(=O)Nc1ccc(Cn2cc(CNS(=O)(=O)c3ccc(-c4ccccc4)cc3)nn2)cc1` (stereo not drawn) [Hit L3, 2-(Hydroxycarbamoyl)-4-methyl-N-[4-[[4-[[(4-phenylphenyl)sulfonylamino]methyl]triazol-1-yl]methyl]phenyl]pentanamide], the IC50 is 13.9 ± 0.3 nM. The figure for `CC(C)CC(C(=O)NO)C(=O)Nc1ccc(Cn2cc(CNS(=O)(=O)c3ccc(C(C)C)cc3)nn2)cc1` (stereo not drawn) [Compound 207, 2-(hydroxycarbamoyl)-N-[4-[[4-[[(4-isopropylphenyl)sulfonylamino]methyl]triazol-1-yl]methyl]phenyl]-4-methyl-pentanamide] is 3.1 ± 0.1 nM. The figure for `CC(C)CC(C(=O)NO)C(=O)Nc1ccc(Cn2cc(CNC(=O)OC(C)(C)C)nn2)cc1` (stereo not drawn) [Compound 133, Tert-butyl N-[[1-[[4-[[2-(hydroxycarbamoyl)-4-methyl-pentanoyl]amino]phenyl]methyl]triazol-4-yl]methyl]carbamate] is 9.8 ± 0.4 nM. The figure for `CC(C)CC(C(=O)NO)C(=O)Nc1ccc(Cn2cc(COc3ccc(Cl)cc3)nn2)cc1` (stereo not drawn) [Compound 135, N-[4-[[4-[(4-Chlorophenoxy)methyl]triazol-1-yl]methyl]phenyl]-2-(hydroxycarbamoyl)-4-methyl-pentanamide] is 9.8 ± 0.3 nM; for `CC(C)CC(C(=O)NO)C(=O)Nc1ccc(Cn2nncc2CNS(=O)(=O)c2ccc(F)cc2)cc1` (stereo not drawn) [Compound 191, N-[4-[[5-[[(4-Fluorophenyl)sulfonylamino]methyl]triazol-1-yl]methyl]phenyl]-2-(hydroxycarbamoyl)-4-methyl-pentanamide] it is 7.9 ± 0.1 nM. In turn, `CC(C)CCC(C(=O)NO)C(=O)Nc1ccc(Cn2cc(CNS(=O)(=O)c3ccc(I)cc3)nn2)cc1` (stereo not drawn) [Compound 215, 2-(hydroxycarbamoyl)-N-[4-[[4-[[(4-iodophenyl)sulfonylamino]methyl]triazol-1-yl]methyl]phenyl]-5-methyl-hexanamide] had an IC50 of 48.5 ± 1.4 nM. For the compound `CC(C)CC(C(=O)NO)C(=O)Nc1ccc(Cn2cc(CNS(=O)(=O)C3CCCCC3)nn2)cc1` (stereo not drawn) [Compound 168, N-[4-[[4-[(Cyclohexylsulfonylamino)methyl]triazol-1-yl]methyl]phenyl]-2-(hydroxycarbamoyl)-4-methyl-pentanamide], 2.7 ± 0.2 nM corresponded to half-maximal inhibition (IC50).

For the compound `CC(C)CC(C(=O)NO)C(=O)Nc1ccc(Cn2cc(CNC(=O)c3ccc(I)cc3)nn2)cc1` (stereo not drawn) [Compound 132, N-[[1-[[4-[[2-(Hydroxycarbamoyl)-4-methyl-pentanoyl]amino]phenyl]methyl]triazol-4-yl]methyl]-4-iodo-benzamide], half-maximal inhibition (IC50) was put at 22.8 ± 0.1 nM.

For the compound `CC(C)CC(C(=O)NO)C(=O)Nc1ccc(Cn2cc(CNS(=O)(=O)Cc3ccc(Cl)cc3)nn2)cc1` (stereo not drawn) [Compound 166, N-[4-[[4-[[(4-Chlorophenyl)methylsulfonylamino]methyl]triazol-1-yl]methyl]phenyl]-2-(hydroxycarbamoyl)-4-methyl-pentanamide], half-maximal inhibition (IC50) required 5.2 ± 0.3 nM. The figure for `COCCOc1ccc(S(=O)(=O)NCc2cn(Cc3ccc(NC(=O)C(CC(C)C)C(=O)NO)cc3)nn2)cc1` (stereo not drawn) [Compound 205, 2-(hydroxycarbamoyl)-N-[4-[[4-[[[4-(2-methoxyethoxy)phenyl]sulfonylamino]methyl]triazol-1-yl]methyl]phenyl]-4-methyl-pentanamide] is 29.5 ± 0.7 nM; for `O=C(NO)C(CC1CC1)C(=O)Nc1ccc(Cn2cc(CNS(=O)(=O)c3ccc(I)cc3)nn2)cc1` (stereo not drawn) [Compound 183, 2-(Cyclopropylmethyl)-3-(hydroxyamino)-N-[4-[[4-[[(4-iodophenyl)sulfonylamino]methyl]triazol-1-yl]methyl]phenyl]-3-oxo-propanamide] it is 9.9 ± 0.3 nM; for `CC(C)CC(C(=O)NO)C(=O)Nc1ccc(Cn2nncc2CNS(=O)(=O)c2ccc(I)cc2)cc1` (stereo not drawn) [Compound 190, 2-(Hydroxycarbamoyl)-N-[4-[[5-[[(4-iodophenyl)sulfonylamino]methyl]triazol-1-yl]methyl]phenyl]-4-methyl-pentanamide] it is 7.8 ± 0.1 nM.

Regarding `CC(C)CC(C(=O)NO)C(=O)Nc1ccc(Cn2cc(C3CSCN3C(=O)c3ccc(F)cc3)nn2)cc1` (stereo not drawn) [Hit L4, N-[4-[[4-[3-(4-Fluorobenzoyl)thiazolidin-4-yl]triazol-1-yl]methyl]phenyl]-2-(hydroxycarbamoyl)-4-methyl-pentanamide], the half-maximal inhibitory concentration (IC50) worked out at 6.6 ± 0.2 nM.

In turn, `CC(C)CC(C(=O)NO)C(=O)Nc1ccc(Cn2cc(CNS(=O)(=O)c3ccc(N)cc3)nn2)cc1` (stereo not drawn) [Compound 210, N-[4-[[4-[[(4-aminophenyl)sulfonylamino]methyl]triazol-1-yl]methyl]phenyl]-2-(hydroxycarbamoyl)-4-methyl-pentanamide] displayed an IC50 of 7.7 ± 0.2 nM. The figure for `CC(C)CC(C(=O)NO)C(=O)Nc1ccc(Cn2cc(CN)nn2)cc1` (stereo not drawn) [Compound 140, N-[4-[[4-(Aminomethyl)triazol-1-yl]methyl]phenyl]-2-(hydroxycarbamoyl)-4-methyl-pentanamide] is 55.9 ± 2.3 nM.

For the origin of these results see patent US20250170104A1, “INHIBITORS OF PSEUDOMONAS AERUGINOSA VIRULENCE FACTOR Lasß” (priority 2022, published 2025).
